Test results taken from ChEMBL document CHEMBL4270488, “Antibacterial Compounds from Marine Bacteria, 2010-2015” (J Nat Prod, 2017).
≈ marks a conversion by molar mass, not a printed value. Where a SMILES comes first, the peptide text is derived from it. Bridges are numbered along the chain shown (N, C = ends). [ ]: non-standard residue; d: D form. The star is where a group is joined. ξ: configuration not given here. NMeLeu(3ξ-Me) = CN[C@H](C(=O)O)C(C)C(C)C; d(cisHyp) = O=C(O)[C@H]1C[C@@H](O)CN1; Picolinoyl(3-OH) = O=C(c1ncccc1O)*; NMePhg = CN[C@H](C(=O)O)c1ccccc1; Sar = CNCC(=O)O

How the values were obtained:
Type in all cases: functional
Staphylococcus aureus [1] = assay: Antibacterial activity against methicillin-resistant Staphylococcus aureus ATCC 43300
Staphylococcus aureus [2] = assay: Antibacterial activity against Staphylococcus aureus […]
Streptococcus pneumoniae = assay: Antibacterial activity against Streptococcus pneumoniae ATCC 51916 by microplate assay
Staphylococcus aureus [3] = assay: Antibacterial activity against methicillin-sensitive Staphylococcus aureus
Moraxella catarrhalis [4] = assay: Antibacterial activity against Moraxella catarrhalis
Staphylococcus aureus [5] = assay: Antibacterial activity against Staphylococcus aureus ATCC 13709 by microplate assay
Bacillus anthracis = assay: Antibacterial activity against Bacillus anthracis UM23C1-1 by microplate assay
Enterococcus faecalis [6] = assay: Antibacterial activity against Enterococcus faecalis ATCC 29212 by microplate assay
Staphylococcus aureus [7] = assay: Antibacterial activity against methicillin-resistant Staphylococcus aureus infected in CD1 mouse assessed as mouse survival rate at 10 mg/kg
Moraxella catarrhalis [8] = assay: Antibacterial activity against Moraxella catarrhalis incubated for 18 to 20 hrs by microbroth dilution method
Enterococcus faecalis [9] = assay: Antibacterial activity against Enterococcus faecalis incubated for 18 to 20 hrs by microbroth dilution method
Streptococcus agalactiae = assay: Antibacterial activity against Streptococcus agalactiae incubated for 18 to 20 hrs by microbroth dilution method
Staphylococcus aureus [10] = assay: Antibacterial activity against hospital associated methicillin-resistant Staphylococcus aureus incubated for 18 to 20 hrs by microbroth dilution method
Haemophilus influenzae = assay: Antibacterial activity against Haemophilus influenzae incubated for 18 to 20 hrs by microbroth dilution method
Staphylococcus aureus [11] = assay: Antibacterial activity against community associated methicillin-resistant Staphylococcus aureus incubated for 18 to 20 hrs by microbroth dilution method
Streptococcus pyogenes = assay: Antibacterial activity against Streptococcus pyogenes incubated for 18 to 20 hrs by microbroth dilution method

SMILES: CCCC1(O)CC(=O)c2c(Cc3cc(=O)cc(O)o3)cccc2O1 (stereo unspecified)
- MIC (Staphylococcus aureus [1]): 2 µg/mL (≈ 6.05 µM)
- MIC (Staphylococcus aureus [2]): 16 µg/mL (≈ 48.4 µM)

SMILES: CC1=CC[C@@H]2[C@H]3/C(O)=C/C(=O)[C@@H](C)C(=O)O[C@H](C)/C=C/C=C\[C@@H](C)[C@H]3C=C[C@H]2C1
- MIC (Streptococcus pneumoniae): 0.06 to 0.25 µg/mL (≈ 0.151 to 0.63 µM)
- MIC (Staphylococcus aureus [3]): ≤ 0.25 µg/mL
- MIC (Moraxella catarrhalis [4]): 4 µg/mL (≈ 10.1 µM)
- MIC (Staphylococcus aureus [5]): 0.06 to 0.25 µg/mL (≈ 0.151 to 0.63 µM)
- MIC (Bacillus anthracis): 0.03 µg/mL (≈ 0.0757 µM)
- MIC (Enterococcus faecalis [6]): 0.06 to 0.25 µg/mL (≈ 0.151 to 0.63 µM)
- survival at 10 mg/kg (Staphylococcus aureus [7]): 90%

SMILES: CC(C)C[C@H]1NC(=O)[C@@H](NC(=O)c2ncccc2O)[C@@H](C)OC(=O)[C@H](c2ccccc2)N(C)C(=O)[C@H](C)NC(=O)[C@H](C(C)C(C)C)N(C)C(=O)CN(C)C(=O)[C@H]2C[C@@H](O)CN2C1=O (stereo partly drawn) [VIRIFOGRISEIN I] ({Picolinoyl(3-OH)}-T[dL][d(cisHyp)][Sar][NMeLeu(3ξ-Me)]A[NMePhg]; ester 1-C)
- MIC (Moraxella catarrhalis [8]): 1 µg/mL (≈ 1.14 µM)
- MIC (Enterococcus faecalis [9]): 16 µg/mL (≈ 18.2 µM)
- MIC (Streptococcus agalactiae): 8 µg/mL (≈ 9.1 µM)
- MIC (Staphylococcus aureus [10]): 1 to 2 µg/mL (≈ 1.14 to 2.28 µM)
- MIC (Haemophilus influenzae): 16 µg/mL (≈ 18.2 µM)
- MIC (Staphylococcus aureus [11]): 1 to 2 µg/mL (≈ 1.14 to 2.28 µM)
- MIC (Streptococcus pyogenes): 8 µg/mL (≈ 9.1 µM)
